The target in one experiment is T1, CB1 receptor (Mus musculus, UniProt P47746).
T1 construct: from tissue; host or cells: whole animal, Jcl: ICR male mice
Nature of the experiment: Body temperature-lowering action on mouse (CB1 receptor agonistic activity in vivo). Particulars: Jcl: ICR male mice, 1 mg/kg i.p., rectal temperature 30 minutes after administration, compared with control group. How it is done: Body temperature-lowering action on mouse
CB1 receptor agonistic activity of the compound of the present invention in vivo was evaluated by investigating the effect on the body temperature of mouse after the drug was administered to the mouse. In this experiment, Jcl: ICR male mice (5 weeks old) were used. After measuring the rectal temperature with a thermometer (Physitemp BAT-12) that was connected to a probe for measuring body temperature, the compound dissolved in 2.2% EtOH and 5% G2-β-cyclodextrin (solvent) was administered intraperitoneally. Solvent only was administered to the control group. 30 minutes after administration, rectal temperature was measured again. The experiment was conducted for 4 subjects per a group.

A further experiment has as its target T2, human CB2 receptor (Homo sapiens, UniProt P34972).
T2 construct: expressed in transfected cells; host or cells: CHO cells (membrane fraction)
Put plainly: [3H]-CP55,940 binding inhibition assay, CHO cell membrane fraction expressing human CB2 receptor. How it is done:
(§1) [^3H]-CP55,940 binding assay with a cell membrane fraction expressing human CB1 and CB2 receptor
(§2) [^3H]-CP55940 binding inhibition assay was conducted by incubating a CHO cell membrane fraction expressing human CB1 receptor and the test compound and 500 pM [^3H]-CP55940 in reaction buffer (50 mM Tris-HCl (pH7.4), 5 mM MgCl2, 2.5 mM EDTA and 0.5% BSA (fatty acid free)) at room temperature for 60 minutes. The reaction solution was filtered through GF/C filter, washed with 300 μl of washing buffer (50 mM Tris-HCl (pH7.4), 0.05% BSA (fatty acid free)) four times, and the radioactivity of the filter was measured with a Top Count scintillation counter (Packard). As results, the test compound has inhibited binding of [^3H]-CP55940 to the membrane fraction dose-dependently.
(§3) The inhibitory activity of the test compound to [^3H]-CP55940 binding was calculated by percent on the basis that radioactivity is 100% when only 500 pM [^3H]-CP55940 was added, and 0% when 500 pM [^3H]-CP55940 and 100 nM CP55940 were added at the same time. Further, IC50 value of the test compound was calculated by analyzing concentrations and percents of the test compound with PRISM 3.0 (Graphpad Software, Inc.).
The same assay was also conducted for a CHO cell membrane fraction expressing human CB2 receptor, and the inhibitory activity to [^3H]-CP55940 binding was calculated.

A further experiment addresses T3, human CB1 receptor (Homo sapiens, UniProt P21554).
T3 construct: expressed in transfected cells; host or cells: CHO cells (membrane fraction)
Nature of the experiment: [3H]-CP55,940 binding inhibition assay, CHO cell membrane fraction expressing human CB1 receptor. How it is done: as §1, §2, §3

In general, pIC50 refers to the negative decadic logarithm of the IC50, by convention in mol/L.

The structures appear in SMILES notation. pIC50: −log10 of the molar value. Where two headings read alike, the source gives them in different places. Where only a bound is given, the exact number is not on record here.

T2 sequence (P34972 whole entry): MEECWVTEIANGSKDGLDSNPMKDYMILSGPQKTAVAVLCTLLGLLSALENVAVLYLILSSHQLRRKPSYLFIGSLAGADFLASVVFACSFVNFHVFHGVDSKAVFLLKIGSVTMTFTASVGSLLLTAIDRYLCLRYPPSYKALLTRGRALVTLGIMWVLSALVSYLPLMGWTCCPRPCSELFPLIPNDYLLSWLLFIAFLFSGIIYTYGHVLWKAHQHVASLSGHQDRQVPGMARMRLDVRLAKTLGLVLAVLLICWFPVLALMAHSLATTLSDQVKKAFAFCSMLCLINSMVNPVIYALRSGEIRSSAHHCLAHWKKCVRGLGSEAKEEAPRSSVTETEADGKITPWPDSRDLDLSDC
T1 sequence (P47746 whole entry): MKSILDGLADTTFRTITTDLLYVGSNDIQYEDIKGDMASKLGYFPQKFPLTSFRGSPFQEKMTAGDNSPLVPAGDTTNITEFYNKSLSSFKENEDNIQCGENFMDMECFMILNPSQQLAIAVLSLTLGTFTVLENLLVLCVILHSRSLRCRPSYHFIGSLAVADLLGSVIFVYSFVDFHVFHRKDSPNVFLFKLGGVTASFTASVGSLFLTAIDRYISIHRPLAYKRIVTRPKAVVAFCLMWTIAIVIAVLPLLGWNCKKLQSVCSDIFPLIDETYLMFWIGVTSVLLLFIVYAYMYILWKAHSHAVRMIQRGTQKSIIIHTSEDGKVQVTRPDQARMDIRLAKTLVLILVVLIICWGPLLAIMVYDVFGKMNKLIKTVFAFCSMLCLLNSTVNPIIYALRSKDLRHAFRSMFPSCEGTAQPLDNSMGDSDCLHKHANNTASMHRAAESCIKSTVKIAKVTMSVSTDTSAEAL
T3 sequence (P21554 whole entry): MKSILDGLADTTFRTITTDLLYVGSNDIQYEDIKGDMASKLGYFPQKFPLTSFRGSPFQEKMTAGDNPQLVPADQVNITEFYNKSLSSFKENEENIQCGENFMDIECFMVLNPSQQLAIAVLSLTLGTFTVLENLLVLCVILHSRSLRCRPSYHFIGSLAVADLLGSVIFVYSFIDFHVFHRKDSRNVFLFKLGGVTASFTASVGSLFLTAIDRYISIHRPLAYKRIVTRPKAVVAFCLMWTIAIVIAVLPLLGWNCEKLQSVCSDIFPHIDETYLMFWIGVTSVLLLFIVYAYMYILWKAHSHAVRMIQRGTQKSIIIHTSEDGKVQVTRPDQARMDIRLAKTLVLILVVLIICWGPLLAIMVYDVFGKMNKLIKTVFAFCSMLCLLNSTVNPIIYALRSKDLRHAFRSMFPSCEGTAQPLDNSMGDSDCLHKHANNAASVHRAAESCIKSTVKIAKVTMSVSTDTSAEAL

On to `Cc1c(C)c2c(c(C)c1NC(=O)CC(C)(C)C)C(c1ccc(C(C)C)cc1)CO2` (stereo not drawn) [Example 1, N-(3-(4-Isopropylphenyl)-4,6,7-trimethyl-2,3-dihydro-1-benzofuran-5-yl)-3,3-dimethylbutanamide], for which, on CB1 receptor, the “Test Results (body temperature-lowering action)” value is “Effective (estimated as effective if the compound of the present invention lowered the body temperature substantially by 1 °C or more when compared with the control group 30 minutes after administration of 1 mg/kg, i.p.)”. Besides, the pIC50 at human CB2 receptor was more than 8.00; at human CB1 receptor it was 7.70.
With `Cc1c(C)c(C(CO)c2ccc(C(C)C)cc2)c(O)c(C)c1Br` (stereo not drawn) [Reference Example 234], the negative logarithm of the IC50 (pIC50) on human CB2 receptor was 7.51; at human CB1 receptor, 7.40.
In the case of `COc1c(C)c(NC(=O)CC(C)(C)C)c(C)c2c1OCC2c1ccc(C(C)C)cc1` (stereo not drawn) [Example 36, N-(3-(4-Isopropylphenyl)-7-methoxy-4,6-dimethyl-2,3-dihydro-1-benzofuran-5-yl)-3,3-dimethylbutanamide], the “Test Results (body temperature-lowering action)” value at CB1 receptor was “Effective (estimated as effective if the compound of the present invention lowered the body temperature substantially by 1 °C or more when compared with the control group 30 minutes after administration of 1 mg/kg, i.p.)”. Also, the pIC50 at human CB2 receptor and on human CB1 receptor was more than 8.00 in each case.
Regarding `Cc1c(NC(=O)CC(C)(C)C)c(C)c(C(C)(C)O)c2c1C(c1ccc(C(C)C)cc1)CO2` (stereo not drawn) [Example 33, N-(7-(1-Hydroxy-1-methylethyl)-3-(4-isopropylphenyl)-4,6-dimethyl-2,3-dihydro-1-benzofuran-5-yl)-3,3-dimethylbutanamide], the “Test Results (body temperature-lowering action)” value on CB1 receptor was “Effective (estimated as effective if the compound of the present invention lowered the body temperature substantially by 1 °C or more when compared with the control group 30 minutes after administration of 1 mg/kg, i.p.)”. Besides, the pIC50 is more than 8.00 at human CB2 receptor and 7.85 on human CB1 receptor.
`Cc1c(Br)c2c(c(C)c1NC(=O)CC(C)(C)C)C(c1ccc(C(C)C)cc1)CO2` (stereo not drawn) [Example 35, N-(7-Bromo-3-(4-isopropylphenyl)-4,6-dimethyl-2,3-dihydro-1-benzofuran-5-yl)-3,3-dimethylbutanamide]: the “Test Results (body temperature-lowering action)” value at CB1 receptor is “Effective (estimated as effective if the compound of the present invention lowered the body temperature substantially by 1 °C or more when compared with the control group 30 minutes after administration of 1 mg/kg, i.p.)”. The pIC50 at human CB2 receptor and at human CB1 receptor was more than 8.00 each time.
Take `Cc1ccc(C)c(C(CO)c2ccc(C(C)C)cc2)c1O` (stereo not drawn) [Reference Example 233]: the pIC50 on human CB2 receptor is 7.33; on human CB1 receptor it was 7.42.
Regarding `CCCc1c(C)c(NC(=O)CC(C)(C)C)c(C)c2c1OCC2c1ccc(C(C)C)cc1` (stereo not drawn) [Example 34, N-(3-(4-Isopropylphenyl)-4,6-dimethyl-7-propyl-2,3-dihydro-1-benzofuran-5-yl)-3,3-dimethylbutanamide], at CB1 receptor, the “Test Results (body temperature-lowering action)” value was “Effective (estimated as effective if the compound of the present invention lowered the body temperature substantially by 1 °C or more when compared with the control group 30 minutes after administration of 1 mg/kg, i.p.)”. Moreover, the pIC50 on human CB2 receptor and on human CB1 receptor was more than 8.00 in each case.
`Cc1cc(C)c2c(c1)SCC2c1ccc(C(C)C)cc1` (stereo not drawn) [Reference Example 212]: the pIC50 is more than 8.00 on human CB2 receptor and 7.16 at human CB1 receptor.
In the case of `CC(=O)c1c(C)c(NC(=O)CC(C)(C)C)c(C)c2c1OCC2c1ccc(C(C)C)cc1` (stereo not drawn) [Example 32, N-(7-Acetyl-3-(4-isopropylphenyl)-4,6-dimethyl-2,3-dihydro-1-benzofuran-5-yl)-3,3-dimethylbutanamide], the “Test Results (body temperature-lowering action)” value at CB1 receptor was “Effective (estimated as effective if the compound of the present invention lowered the body temperature substantially by 1 °C or more when compared with the control group 30 minutes after administration of 1 mg/kg, i.p.)”. The pIC50 on human CB2 receptor and on human CB1 receptor was more than 8.00 throughout.
As for `Cc1c(C)c2c(c(C)c1NC(=O)CC(C)(C)C)[C@@H](c1ccc(C(C)C)cc1)CO2` [Example 7, (+)-N-((3R)-3-(4-Isopropylphenyl)-4,6,7-trimethyl-2,3-dihydro-1-benzofuran-5-yl)-3,3-dimethylbutanamide], the “Test Results (body temperature-lowering action)” value on CB1 receptor was “Effective (estimated as effective if the compound of the present invention lowered the body temperature substantially by 1 °C or more when compared with the control group 30 minutes after administration of 1 mg/kg, i.p.)”. Moreover, the pIC50 on human CB2 receptor and on human CB1 receptor was more than 8.00 in each case.
Consider `CCOC(=O)C(C)(C)Oc1cc(C)cc(C)c1Cc1ccc(C(C)C)cc1` [Reference Example 153], for which the pIC50 was 6.25 on human CB2 receptor (500 pM [3H]-CP55940, CHO cell membrane fraction expressing human CB2 receptor, read-out: CB2 IC50 value) and 6.96 on human CB1 receptor (500 pM [3H]-CP55940, CHO cell membrane fraction expressing human CB1 receptor, room temperature, 60 minutes, read-out: CB1 IC50 value).
On to `CCC(O)c1c(C)c(NC(=O)CC(C)(C)C)c(C)c2c1OCC2c1ccc(C(C)C)cc1` (single isomer, unassigned) [Example 31, N-(7-(1-Hydroxypropyl)-3-(4-isopropylphenyl)-4,6-dimethyl-2,3-dihydro-1-benzofuran-5-yl)-3,3-dimethylbutanamide], for which the “Test Results (body temperature-lowering action)” value on CB1 receptor is “Effective (estimated as effective if the compound of the present invention lowered the body temperature substantially by 1 °C or more when compared with the control group 30 minutes after administration of 1 mg/kg, i.p.)”. Besides, the pIC50 at human CB2 receptor and at human CB1 receptor was more than 8.00 throughout.
On to `CCC(=O)Nc1c(C)c(C)c2c(c1C)C(c1ccc(C(C)C)cc1)CO2` (stereo not drawn) [Example 9, N-(3-(4-Isopropylphenyl)-4,6,7-trimethyl-2,3-dihydro-1-benzofuran-5-yl)propionamide], for which the pIC50 is 7.96 at human CB2 receptor and 7.10 on human CB1 receptor.
With `Cc1c(NC(=O)CC(C)(C)C)c(C)c2c(c1C(C)O)OCC2c1ccc(C(C)C)cc1` (single isomer, unassigned) [Example 28, N-(7-(1-Hydroxyethyl)-3-(4-isopropylphenyl)-4,6-dimethyl-2,3-dihydro-1-benzofuran-5-yl)-3,3-dimethylbutanamide], the “Test Results (body temperature-lowering action)” value on CB1 receptor was “Effective (estimated as effective if the compound of the present invention lowered the body temperature substantially by 1 °C or more when compared with the control group 30 minutes after administration of 1 mg/kg, i.p.)”. Besides, the pIC50 at human CB2 receptor and at human CB1 receptor was more than 8.00 throughout.
For the molecule `Cc1ccc(C)c2c1OC(=O)C2c1ccc(C(C)C)cc1` (stereo not drawn) [Reference Example 230], the pIC50 at human CB2 receptor and at human CB1 receptor was 7.26 each time.
Turning to `Cc1c(NC(=O)CC(C)(C)C)c(C)c2c(c1C(C)O)OCC2c1ccc(C(C)C)cc1` (single isomer, unassigned) [Example 29, N-(7-(1-Hydroxyethyl)-3-(4-isopropylphenyl)-4,6-dimethyl-2,3-dihydro-1-benzofuran-5-yl)-3,3-dimethylbutanamide], on CB1 receptor, the “Test Results (body temperature-lowering action)” value was “Effective (estimated as effective if the compound of the present invention lowered the body temperature substantially by 1 °C or more when compared with the control group 30 minutes after administration of 1 mg/kg, i.p.)”. Moreover, the negative-log IC50 (pIC50) is more than 8.00 at human CB2 receptor (read-out: CB2 IC50 value, 500 pM [3H]-CP55940, CHO cell membrane fraction expressing human CB2 receptor) and more than 8.00 at human CB1 receptor (read-out: CB1 IC50 value, 500 pM [3H]-CP55940, CHO cell membrane fraction expressing human CB1 receptor, room temperature, 60 minutes).
Regarding `Cc1c(C)c2c(c(C)c1NC(=O)NC(C)(C)C)C(c1ccc(C(C)C)cc1)CO2` (stereo not drawn) [Example 14, N-(tert-Butyl)-N′-(3-(4-isopropylphenyl)-4,6,7-trimethyl-2,3-dihydro-1-benzofuran-5-yl)urea], the “Test Results (body temperature-lowering action)” value at CB1 receptor was “Effective (estimated as effective if the compound of the present invention lowered the body temperature substantially by 1 °C or more when compared with the control group 30 minutes after administration of 1 mg/kg, i.p.)”. Also, the values for the pIC50 at human CB2 receptor and at human CB1 receptor were more than 8.00 and 7.70, respectively.
For the molecule `Cc1c(NC(=O)CC(C)(C)C)c(C)c2c(c1C(C)O)OCC2c1ccc(C(C)C)cc1` (stereo not drawn) [Example 22, N-(7-(1-Hydroxyethyl)-3-(4-isopropylphenyl)-4,6-dimethyl-2,3-dihydro-1-benzofuran-5-yl)-3,3-dimethylbutanamide], at CB1 receptor, the “Test Results (body temperature-lowering action)” value is “Effective (estimated as effective if the compound of the present invention lowered the body temperature substantially by 1 °C or more when compared with the control group 30 minutes after administration of 1 mg/kg, i.p.)”. In addition, the pIC50 is more than 8.00 on human CB2 receptor and 7.96 on human CB1 receptor.

These data come from patent US7465815B2, “Cannabinoid receptor modulator” (priority 2003, dated 2008).
